The text below walks through data of ChEMBL document CHEMBL1159244, “New polyoxypregnane ester derivatives from Leptadenia hastata” (J Nat Prod, 1995).

Molecules are shown by their SMILES. Calls of active or inactive are those of the source. The rule behind the calls is not given here.

Test [1] relates to Raji. Description: Cytotoxicity against human Raji cells assessed as [methyl-3H]thymidine incorporation into DNA at 0.5 ug/ml after 24 hrs. Type of test: functional, cell-based.
Test [2] relates to Raji. Description: Cytotoxicity against human Raji cells assessed as [methyl-3H]thymidine incorporation into DNA at 1 ug/ml after 24 hrs. Type of test: functional, cell-based.

In the case of `CC(=O)O[C@@H]1C[C@@H]2[C@@]3(C)CC[C@H](O)CC3=CC[C@@]2(O)[C@@]2(O)CC[C@@](O)([C@H](C)O)[C@@]12C`, the outcome with Raji [1] and with Raji [2] was inactive.

On to `CC(=O)[C@]1(O)CC[C@@]2(O)[C@]1(C)[C@H](OC(=O)/C=C/c1ccccc1)C[C@@H]1[C@@]3(C)CC[C@H](O)CC3=CC[C@]12O`, for which the result in the test with Raji [1] and in the test with Raji [2] was inactive.

On to `CC(=O)O[C@@H]1C[C@@H]2[C@@]3(C)CC[C@H](O)CC3=CC[C@@]2(O)[C@@]2(O)CC[C@@](O)(C(C)=O)[C@@]12C`, for which the outcome in the test on Raji [1] and with Raji [2] was inactive.

On to `CO[C@H]1C[C@H](O[C@H]2CC[C@@]3(C)C(=CC[C@]4(O)[C@@H]3C[C@@H](OC(=O)c3ccccc3)[C@@]3(C)[C@]4(O)CC[C@@]3(O)[C@H](C)OC(=O)/C=C/c3ccccc3)C2)O[C@H](C)[C@H]1O`, for which the result with Raji [1] and in the test on Raji [2] was inactive.

With `C[C@H](OC(=O)c1cccnc1)[C@]1(O)CC[C@@]2(O)[C@]1(C)[C@H](OC(=O)/C=C/c1ccccc1)C[C@@H]1[C@@]3(C)CC[C@H](O)CC3=CC[C@]12O`, the outcome in the test with Raji [1] and in the test on Raji [2] was inactive.

Turning to `CC(=O)[C@]1(O)CC[C@@]2(O)[C@]1(C)[C@H](OC(=O)c1ccccc1)C[C@@H]1[C@@]3(C)CC[C@H](O)CC3=CC[C@]12O`, the outcome in the test with Raji [1] and in the test with Raji [2] was inactive.

With `C[C@H](O)[C@]1(O)CC[C@@]2(O)[C@]1(C)[C@H](OC(=O)/C=C/c1ccccc1)C[C@@H]1[C@@]3(C)CC[C@H](O)CC3=CC[C@]12O`, the result with Raji [1] and in the test with Raji [2] was inactive.

As for `CO[C@H]1C[C@H](O[C@H]2CC[C@@]3(C)C(=CC[C@]4(O)[C@@H]3C[C@@H](OC(=O)/C=C/c3ccccc3)[C@@]3(C)[C@]4(O)CC[C@@]3(O)[C@H](C)O)C2)O[C@H](C)[C@H]1O[C@H]1C[C@@H](OC)[C@H](O)[C@@H](C)O1`, the outcome in the test with Raji [1] and with Raji [2] was inactive.

On to `CC(=O)[C@]1(O)CC[C@@]2(O)[C@]1(C)[C@H](OC(=O)c1cccnc1)C[C@@H]1[C@@]3(C)CC[C@H](O)CC3=CC[C@]12O`, for which the outcome with Raji [1] and with Raji [2] was inactive.

In the case of `CC(=O)O[C@@H](C)[C@]1(O)CC[C@@]2(O)[C@]1(C)[C@H](OC(=O)/C=C/c1ccccc1)C[C@@H]1[C@@]3(C)CC[C@H](O)CC3=CC[C@]12O`, the outcome with Raji [1] and in the test on Raji [2] was inactive.

As to `CO[C@H]1C[C@H](O[C@H]2CC[C@@]3(C)C(=CC[C@]4(O)[C@@H]3C[C@@H](OC(=O)c3ccccc3)[C@@]3(C)[C@]4(O)CC[C@@]3(O)[C@H](C)OC(=O)/C=C/c3ccccc3)C2)O[C@H](C)[C@H]1O[C@H]1C[C@@H](OC)[C@H](O)[C@@H](C)O1`, the outcome in the test on Raji [1] and in the test on Raji [2] was inactive.

For the compound `C[C@H](OC(=O)c1ccccc1)[C@]1(O)CC[C@@]2(O)[C@]1(C)[C@H](OC(=O)c1ccccc1)C[C@@H]1[C@@]3(C)CC[C@H](O)CC3=CC[C@]12O`, the result in the test on Raji [1] and in the test on Raji [2] was inactive.

As for `C[C@H](OC(=O)/C=C/c1ccccc1)[C@]1(O)CC[C@@]2(O)[C@]1(C)[C@H](OC(=O)c1ccccc1)C[C@@H]1[C@@]3(C)CC[C@H](O)CC3=CC[C@]12O`, the result in the test with Raji [1] and in the test with Raji [2] was inactive.

On to `CC(=O)O[C@@H](C)[C@]1(O)CC[C@@]2(O)[C@]1(C)[C@H](OC(=O)c1cccnc1)C[C@@H]1[C@@]3(C)CC[C@H](O)CC3=CC[C@]12O`, for which the result with Raji [1] and in the test with Raji [2] was inactive.
